ChEMBL document CHEMBL1201862, “PubChem BioAssay data set” (2004)
Calls of active or inactive are those of the source.

What was measured:
[1] = molecular target: T1, Alkaline phosphatase, tissue-nonspecific isozyme (Homo sapiens, UniProt P05186)
T1 sequence (P05186 whole entry): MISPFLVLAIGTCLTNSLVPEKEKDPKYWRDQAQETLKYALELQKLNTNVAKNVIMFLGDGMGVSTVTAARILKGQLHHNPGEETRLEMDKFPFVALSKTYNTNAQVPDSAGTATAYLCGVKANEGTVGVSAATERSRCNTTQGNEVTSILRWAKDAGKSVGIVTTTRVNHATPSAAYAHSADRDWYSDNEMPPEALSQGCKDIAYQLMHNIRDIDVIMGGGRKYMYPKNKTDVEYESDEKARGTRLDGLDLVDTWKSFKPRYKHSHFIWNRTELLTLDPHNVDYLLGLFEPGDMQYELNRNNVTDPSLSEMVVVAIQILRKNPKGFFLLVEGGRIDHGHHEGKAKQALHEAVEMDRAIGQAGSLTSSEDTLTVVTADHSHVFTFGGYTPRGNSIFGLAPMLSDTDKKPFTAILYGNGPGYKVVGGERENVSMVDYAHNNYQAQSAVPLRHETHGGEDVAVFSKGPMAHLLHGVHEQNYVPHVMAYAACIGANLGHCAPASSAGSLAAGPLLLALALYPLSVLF

[2] = molecular target: Cytochrome P450 2D6 (Homo sapiens, UniProt P10635); assay: qHTS Assay for Inhibitors and Substrates of Cytochrome P450 2D6. [Related pubchem assays: 410 ]; type: ADME; details: read-out: Potency
[3] = molecular target: Cytochrome P450 3A4 (Homo sapiens, UniProt P08684); details: Potency;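 note: confirmatory qHTS run detecting inhibitors and substrates of CYP3A4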
Sequence of Cytochrome P450 3A4 (P08684 whole entry): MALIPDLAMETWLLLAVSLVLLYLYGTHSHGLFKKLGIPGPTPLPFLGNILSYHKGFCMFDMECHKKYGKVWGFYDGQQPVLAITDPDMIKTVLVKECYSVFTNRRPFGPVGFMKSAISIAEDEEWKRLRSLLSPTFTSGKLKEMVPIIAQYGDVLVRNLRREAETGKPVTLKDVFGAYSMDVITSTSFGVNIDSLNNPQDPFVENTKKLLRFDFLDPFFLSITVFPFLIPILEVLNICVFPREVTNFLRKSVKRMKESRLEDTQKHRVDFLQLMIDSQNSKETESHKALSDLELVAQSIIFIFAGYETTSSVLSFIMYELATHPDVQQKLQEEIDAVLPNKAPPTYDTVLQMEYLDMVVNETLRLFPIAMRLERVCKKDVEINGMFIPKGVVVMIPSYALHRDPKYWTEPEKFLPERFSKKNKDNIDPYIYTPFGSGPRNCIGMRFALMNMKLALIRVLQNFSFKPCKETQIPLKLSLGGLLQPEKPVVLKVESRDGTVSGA

[4] = system: HEK293; assay: PMA/Ionomycin induced NF-kB luciferase assay in 293- NF-kB-Luc stable cells. [Related pubchem assays: 1299, 1270, 1295, 1375, 1287, 1281, 1293, 1291, 1289, 1280, 465, 1364, 1282, 1372, 1365, 1370, 1367, 1366, 1269, 1373, 1292, 1290, 1302, 1371, 1283, 1271, 1294, 1374, 1368, 1369 ]; type: functional, cell-based; details: Homo sapiens
[5] = molecular target: Luciferin 4-monooxygenase (Photinus pyralis, UniProt P08659); assay: In vitro luciferase assay using purified luciferase. [Related pubchem assays: 1299, 1270, 1295, 1375, 1287, 1281, 1293, 1291, 1289, 1280, 465, 1364, 1282, 1372, 1365, 1370, 1367, 1366, 1266, 1373, 1292, 1290, 1302, 1371, 1283, 1271, 1294, 1374, 1368, 1369 ]
Sequence of Luciferin 4-monooxygenase (P08659 whole entry): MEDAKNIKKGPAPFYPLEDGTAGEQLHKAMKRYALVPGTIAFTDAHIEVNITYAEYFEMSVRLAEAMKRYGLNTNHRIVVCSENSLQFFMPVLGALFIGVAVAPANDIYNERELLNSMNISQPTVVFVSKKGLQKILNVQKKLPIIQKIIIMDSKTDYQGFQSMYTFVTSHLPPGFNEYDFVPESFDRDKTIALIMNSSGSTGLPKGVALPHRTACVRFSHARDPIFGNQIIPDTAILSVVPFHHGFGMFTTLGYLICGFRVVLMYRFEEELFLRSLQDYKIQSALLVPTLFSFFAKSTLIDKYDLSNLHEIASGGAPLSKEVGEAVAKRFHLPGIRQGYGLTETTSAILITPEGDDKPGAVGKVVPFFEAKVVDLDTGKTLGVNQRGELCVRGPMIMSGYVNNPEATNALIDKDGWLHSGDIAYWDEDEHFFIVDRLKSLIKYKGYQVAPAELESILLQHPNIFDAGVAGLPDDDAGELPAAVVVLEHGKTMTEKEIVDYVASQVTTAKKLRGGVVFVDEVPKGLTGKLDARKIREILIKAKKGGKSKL

[6] = system: HEK293; assay: Cytotoxicity assay in HEK293 cells. [Related pubchem assays (depositor defined):AID1266, AID1269, AID1270, AID1271, AID1280, AID1281, AID1282, AID1283, AID1287, AID1289, AID1290, AID1291, AID1292, AID1293, AID1294, AID1295, AID1299, AID1302, AID1364, AID1365, AID1366, AID1367, AID1369, AID1370, AID1371, AID1372, AID1373, AID1374, AID1375, AID1384 …; type: functional, cell-based; details: Homo sapiens
[7] = molecular target: Dual specificity protein phosphatase 3 (Homo sapiens, UniProt P51452); assay: VHR1 inhibitor Ki determination, SAR follow-up, biochemical, colorimetric (AID 2004)
Sequence of Dual specificity protein phosphatase 3 (P51452 whole entry): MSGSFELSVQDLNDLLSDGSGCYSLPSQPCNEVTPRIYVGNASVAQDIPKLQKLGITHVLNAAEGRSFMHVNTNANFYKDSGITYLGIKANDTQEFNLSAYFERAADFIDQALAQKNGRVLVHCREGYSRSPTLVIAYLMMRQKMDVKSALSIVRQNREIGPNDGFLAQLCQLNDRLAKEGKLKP

[8] = molecular target: Aspartyl aminopeptidase (Plasmodium falciparum 3D7, UniProt Q8I2J3)
Sequence of Aspartyl aminopeptidase (Q8I2J3 whole entry): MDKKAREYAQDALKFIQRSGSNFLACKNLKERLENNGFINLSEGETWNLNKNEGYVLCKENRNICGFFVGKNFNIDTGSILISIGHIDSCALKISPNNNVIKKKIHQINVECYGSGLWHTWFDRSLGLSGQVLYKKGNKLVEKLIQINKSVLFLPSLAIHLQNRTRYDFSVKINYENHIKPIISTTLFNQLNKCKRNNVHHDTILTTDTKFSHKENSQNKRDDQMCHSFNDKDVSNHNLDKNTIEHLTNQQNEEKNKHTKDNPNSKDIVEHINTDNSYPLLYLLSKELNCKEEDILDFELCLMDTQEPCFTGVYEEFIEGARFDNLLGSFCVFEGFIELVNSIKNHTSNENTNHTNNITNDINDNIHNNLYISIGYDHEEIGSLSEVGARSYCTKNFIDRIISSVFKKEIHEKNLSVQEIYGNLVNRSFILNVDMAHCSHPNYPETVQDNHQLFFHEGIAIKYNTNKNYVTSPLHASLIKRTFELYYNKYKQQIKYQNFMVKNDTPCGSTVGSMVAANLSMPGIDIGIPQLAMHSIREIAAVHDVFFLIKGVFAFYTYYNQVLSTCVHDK

[9] = molecular target: Procathepsin L (Homo sapiens, UniProt P07711)
Sequence of Procathepsin L (P07711 whole entry): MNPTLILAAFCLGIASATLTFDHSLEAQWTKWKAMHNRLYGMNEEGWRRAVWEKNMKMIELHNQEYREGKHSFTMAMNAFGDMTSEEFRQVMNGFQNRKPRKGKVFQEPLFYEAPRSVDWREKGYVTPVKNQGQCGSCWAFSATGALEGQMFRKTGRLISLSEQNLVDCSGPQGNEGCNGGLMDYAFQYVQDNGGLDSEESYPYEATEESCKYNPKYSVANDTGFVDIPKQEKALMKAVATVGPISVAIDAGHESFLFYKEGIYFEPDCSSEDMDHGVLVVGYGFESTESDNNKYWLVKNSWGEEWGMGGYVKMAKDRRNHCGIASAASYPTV

[10] = molecular target: Bcl-2-like protein 10 (Homo sapiens, UniProt Q9HD36); assay: displacers of TR3 peptide from Bcl-B, primary screen, selectivity assay for Bfl-1 inhibitor project, biochemical, fluorescence polarization, FITC-TR3 peptide (AID 748);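 note: fluorescence polarization from a fluorescein-labelled TR3 peptide binding purified Bcl-B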
Sequence of Bcl-2-like protein 10 (Q9HD36 whole entry): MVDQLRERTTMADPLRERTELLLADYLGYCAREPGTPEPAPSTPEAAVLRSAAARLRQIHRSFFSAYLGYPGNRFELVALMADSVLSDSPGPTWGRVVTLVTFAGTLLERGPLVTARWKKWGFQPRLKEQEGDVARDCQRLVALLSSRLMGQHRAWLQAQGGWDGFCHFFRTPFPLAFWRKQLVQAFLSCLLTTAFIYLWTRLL

[11] = cells; type: functional, cell-based
[12] = cytotoxicity in HPDE-C7 cells, cell-based, fluorescence, HTS (AID 430); type: functional; details: Homo sapiens
[13] = cytotoxicity in KRAS-transformed pancreatic duct cells, primary screen, cell-based, fluorescence, HTS (AID 431); type: functional; details: Homo sapiens;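 note: cell line used: HPDE-C7K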
[14] = cells; type: functional, cell-based; remark: listed apart in the source
[15] = molecular target: T2, Hexokinase HKDC1 (Homo sapiens, UniProt Q2TB90); assay: HKDC1 hexokinase inhibitors, dose response, biochemical, W721R variant (AID 504729); type: functional
T2 sequence (Q2TB90 whole entry): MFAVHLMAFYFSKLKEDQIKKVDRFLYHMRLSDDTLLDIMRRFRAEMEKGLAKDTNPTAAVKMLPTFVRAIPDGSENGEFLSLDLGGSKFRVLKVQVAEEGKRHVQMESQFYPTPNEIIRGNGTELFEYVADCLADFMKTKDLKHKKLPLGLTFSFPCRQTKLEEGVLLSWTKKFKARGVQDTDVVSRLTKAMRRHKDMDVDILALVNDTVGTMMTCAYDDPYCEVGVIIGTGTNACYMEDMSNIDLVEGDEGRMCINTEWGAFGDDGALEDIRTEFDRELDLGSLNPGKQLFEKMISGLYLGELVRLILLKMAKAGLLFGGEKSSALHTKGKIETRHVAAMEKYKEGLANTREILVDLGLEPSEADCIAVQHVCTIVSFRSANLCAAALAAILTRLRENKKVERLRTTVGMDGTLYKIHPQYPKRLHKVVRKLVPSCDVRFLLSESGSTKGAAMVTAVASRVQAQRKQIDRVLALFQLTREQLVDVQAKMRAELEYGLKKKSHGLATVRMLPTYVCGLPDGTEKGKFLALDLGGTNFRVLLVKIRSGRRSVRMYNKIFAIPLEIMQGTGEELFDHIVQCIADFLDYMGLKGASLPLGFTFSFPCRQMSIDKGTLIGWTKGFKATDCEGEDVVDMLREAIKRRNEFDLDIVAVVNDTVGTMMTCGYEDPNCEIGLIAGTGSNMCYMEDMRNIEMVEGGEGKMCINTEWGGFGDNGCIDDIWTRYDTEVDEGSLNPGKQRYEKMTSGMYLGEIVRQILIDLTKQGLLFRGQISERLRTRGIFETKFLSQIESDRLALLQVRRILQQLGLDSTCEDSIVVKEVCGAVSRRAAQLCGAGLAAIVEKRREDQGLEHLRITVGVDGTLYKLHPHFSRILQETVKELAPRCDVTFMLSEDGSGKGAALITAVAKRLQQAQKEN

[16] = cytotoxicity in HEK-293T cells, dose response, cytotoxicity control for BCR NF-kB inhibitor project, luminescence, B-cell screen hits (AID 489021); type: functional, cell-based;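 note: HEK-293T cells carrying an NF-kB luciferase reporter; cells exposed to compound for about 14 hours before viability readout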
[17] = Cytotoxicity screening for potential Inhibitors of Bacterial Capsule Biogenesis. [Related pubchem assays (depositor defined):AID488970]; type: functional
[18] = system: Vero; assay: cells; type: functional, cell-based; details: Chlorocebus sabaeus
[19] = molecular target: 26S proteasome non-ATPase regulatory subunit 14 (Homo sapiens, UniProt O00487); assay: inhibition of proteasome subunit RPN11 – biochemical, fluorescence polarization, uHTS hits, confirmation (AID 602368); type: functional
Sequence of 26S proteasome non-ATPase regulatory subunit 14 (O00487 whole entry): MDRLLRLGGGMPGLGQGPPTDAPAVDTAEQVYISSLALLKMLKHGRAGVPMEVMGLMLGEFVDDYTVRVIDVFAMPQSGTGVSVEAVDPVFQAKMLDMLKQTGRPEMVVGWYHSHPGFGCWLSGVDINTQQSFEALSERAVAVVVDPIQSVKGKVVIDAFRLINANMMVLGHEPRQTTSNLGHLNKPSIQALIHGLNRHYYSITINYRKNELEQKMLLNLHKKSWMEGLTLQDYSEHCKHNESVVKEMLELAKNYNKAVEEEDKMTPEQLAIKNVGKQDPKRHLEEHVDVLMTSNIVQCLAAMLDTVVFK

[20] = molecular target: 72 kDa type IV collagenase (Homo sapiens, UniProt P08253); assay: Dose Response validation of uHTS RPN11 inhibitor hits using a MMP-2 Fluorescence assay.; type: functional
Sequence of 72 kDa type IV collagenase (P08253 whole entry): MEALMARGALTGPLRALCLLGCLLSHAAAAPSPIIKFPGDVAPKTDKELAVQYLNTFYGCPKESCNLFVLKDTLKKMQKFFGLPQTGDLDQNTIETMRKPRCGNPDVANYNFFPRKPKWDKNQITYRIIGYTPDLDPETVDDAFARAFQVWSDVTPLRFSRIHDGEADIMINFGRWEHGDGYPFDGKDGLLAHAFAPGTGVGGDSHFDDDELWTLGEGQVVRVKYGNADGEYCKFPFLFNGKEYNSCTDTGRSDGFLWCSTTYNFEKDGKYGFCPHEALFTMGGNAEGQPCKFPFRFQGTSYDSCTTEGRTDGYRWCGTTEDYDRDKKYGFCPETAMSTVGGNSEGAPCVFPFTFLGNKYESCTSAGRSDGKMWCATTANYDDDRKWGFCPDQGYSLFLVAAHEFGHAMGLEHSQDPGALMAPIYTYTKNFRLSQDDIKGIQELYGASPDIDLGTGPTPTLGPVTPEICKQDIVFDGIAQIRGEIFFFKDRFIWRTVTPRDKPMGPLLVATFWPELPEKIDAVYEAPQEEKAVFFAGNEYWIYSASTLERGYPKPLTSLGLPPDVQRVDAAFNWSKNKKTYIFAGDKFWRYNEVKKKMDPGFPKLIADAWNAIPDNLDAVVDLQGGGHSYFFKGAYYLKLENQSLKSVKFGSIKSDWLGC

[21] = molecular target: Prothrombin (Bos taurus, UniProt P00735); assay: thrombin inhibition, dose response, biochemical, fluorescence polarization, uHTS hits (AID 602369); type: functional
[22] = molecular target: T3, Small ubiquitin-related modifier 1 (Homo sapiens, UniProt P63165); assay: inhibitors of SUMO1 peptide binding, dose response, biochemical, fluorescence polarization, uHTS hits (AID 624382); type: functional; details: read-out: IC50_Mean
T3 sequence (P63165 whole entry): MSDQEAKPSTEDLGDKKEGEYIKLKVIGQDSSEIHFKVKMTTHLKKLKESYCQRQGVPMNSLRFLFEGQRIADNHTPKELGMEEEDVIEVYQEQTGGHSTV

[23] = molecular target: T3, Small ubiquitin-related modifier 1; assay: inhibitors of SUMO1 partner interactions, dose response, biochemical, FRET (AID 624383); type: functional; details: read-out: IC50_Mean
[24] = molecular target: Wee1-like protein kinase (Homo sapiens, UniProt P30291); assay: G2/M cell cycle arrest in HeLa, late-stage follow-up, mechanism study for Wee1 degradation inhibitor project, FACS, panel member Wee1 Degradation (AID 2088)
Sequence of Wee1-like protein kinase (P30291 whole entry): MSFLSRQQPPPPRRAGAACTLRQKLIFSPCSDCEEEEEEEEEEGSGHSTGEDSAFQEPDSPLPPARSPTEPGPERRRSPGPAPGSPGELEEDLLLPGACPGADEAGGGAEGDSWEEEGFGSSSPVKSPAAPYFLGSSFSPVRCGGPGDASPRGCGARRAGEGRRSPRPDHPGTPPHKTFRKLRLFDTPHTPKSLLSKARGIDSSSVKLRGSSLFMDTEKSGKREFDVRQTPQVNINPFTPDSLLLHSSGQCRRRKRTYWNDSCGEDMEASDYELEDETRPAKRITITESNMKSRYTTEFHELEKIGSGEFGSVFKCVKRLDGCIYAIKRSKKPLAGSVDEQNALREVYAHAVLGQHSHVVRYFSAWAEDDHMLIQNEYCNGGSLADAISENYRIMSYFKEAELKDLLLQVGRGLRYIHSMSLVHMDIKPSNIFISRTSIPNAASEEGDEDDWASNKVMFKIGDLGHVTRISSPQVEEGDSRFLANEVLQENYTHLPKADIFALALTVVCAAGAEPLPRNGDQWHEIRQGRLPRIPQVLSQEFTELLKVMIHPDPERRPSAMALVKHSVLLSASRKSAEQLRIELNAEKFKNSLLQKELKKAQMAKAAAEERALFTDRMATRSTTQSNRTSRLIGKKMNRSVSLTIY

[25] = molecular target: G2/mitotic-specific cyclin-B1 (Homo sapiens, UniProt P14635); assay: G2/M cell cycle arrest in HeLa, late-stage follow-up, mechanism study for Wee1 degradation inhibitor project, FACS, panel member Cyclin B Degradation (AID 2088)
[26] = molecular target: Large T antigen (Simian virus 40, UniProt P03070); type: functional, Betapolyomavirus macacae;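 note: Confirmatory-stage PubChem screen for compounds that inhibit SV40 T antigen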
[27] = molecular target: Cyclin-dependent kinase 5/CDK5 activator 1 (Homo sapiens, UniProt Q00535); assay: CDK5/p35 kinase inhibitors, dose response, biochemical, cherry-picked samples, set 2 (AID 504545)
Sequence of Cyclin-dependent kinase 5/CDK5 activator 1 (Q00535 whole entry): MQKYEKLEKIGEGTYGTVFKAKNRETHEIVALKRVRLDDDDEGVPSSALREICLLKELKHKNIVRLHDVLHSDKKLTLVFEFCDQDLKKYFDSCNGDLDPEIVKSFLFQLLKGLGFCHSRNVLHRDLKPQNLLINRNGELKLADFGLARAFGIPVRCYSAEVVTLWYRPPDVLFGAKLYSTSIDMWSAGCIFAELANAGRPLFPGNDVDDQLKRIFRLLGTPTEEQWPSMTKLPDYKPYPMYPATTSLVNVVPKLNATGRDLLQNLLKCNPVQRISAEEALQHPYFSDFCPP
Sequence of Cyclin-dependent kinase 5/CDK5 activator 1 (Q15078 whole entry, further chain): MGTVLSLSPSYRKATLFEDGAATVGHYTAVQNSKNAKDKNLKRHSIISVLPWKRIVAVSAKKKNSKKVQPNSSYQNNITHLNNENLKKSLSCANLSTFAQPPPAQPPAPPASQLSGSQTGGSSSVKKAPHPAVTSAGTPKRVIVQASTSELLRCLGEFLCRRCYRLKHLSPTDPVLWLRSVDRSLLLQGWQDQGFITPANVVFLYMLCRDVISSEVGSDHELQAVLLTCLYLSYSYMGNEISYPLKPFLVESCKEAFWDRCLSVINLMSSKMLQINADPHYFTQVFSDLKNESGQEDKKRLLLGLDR

[28] = molecular target: Dual specificity tyrosine-phosphorylation-regulated kinase 1A (Rattus norvegicus, UniProt Q63470); type: biochemical, Homo sapiens
[29] = molecular target: T4, Long-chain-fatty-acid--AMP ligase FadD28 (Mycobacterium tuberculosis, UniProt P9WQ59); assay: Fluorescence polarization aasay to screen for inhibitors that compete for the binding of FadD28 to a bisubstrate Measured in Biochemical System Using Plate Reader - 2147-01_Inhibitor_Dose_CherryPick_Activity.; type: functional, Mycobacterium tuberculosis H37Rv
T4 sequence (P9WQ59 whole entry): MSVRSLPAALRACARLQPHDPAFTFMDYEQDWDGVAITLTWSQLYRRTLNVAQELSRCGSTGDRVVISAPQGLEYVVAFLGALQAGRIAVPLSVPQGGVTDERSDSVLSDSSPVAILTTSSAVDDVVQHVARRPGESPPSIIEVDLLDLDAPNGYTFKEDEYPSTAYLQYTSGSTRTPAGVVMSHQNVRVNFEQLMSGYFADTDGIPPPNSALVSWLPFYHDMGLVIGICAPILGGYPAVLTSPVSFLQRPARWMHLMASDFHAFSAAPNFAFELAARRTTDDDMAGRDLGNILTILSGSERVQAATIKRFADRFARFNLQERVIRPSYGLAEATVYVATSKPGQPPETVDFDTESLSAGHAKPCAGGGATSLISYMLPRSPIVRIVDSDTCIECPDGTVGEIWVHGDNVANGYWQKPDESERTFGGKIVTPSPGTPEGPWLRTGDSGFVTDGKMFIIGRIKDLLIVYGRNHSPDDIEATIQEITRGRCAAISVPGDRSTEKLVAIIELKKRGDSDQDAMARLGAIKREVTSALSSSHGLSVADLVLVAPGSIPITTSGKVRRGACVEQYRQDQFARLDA

[30] = molecular target: T5, Cytochrome P450 1A2 (Homo sapiens, UniProt P05177);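 note: PubChem cytochrome P450 panel assay, CYP1A2 panel member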
T5 sequence (P05177 whole entry): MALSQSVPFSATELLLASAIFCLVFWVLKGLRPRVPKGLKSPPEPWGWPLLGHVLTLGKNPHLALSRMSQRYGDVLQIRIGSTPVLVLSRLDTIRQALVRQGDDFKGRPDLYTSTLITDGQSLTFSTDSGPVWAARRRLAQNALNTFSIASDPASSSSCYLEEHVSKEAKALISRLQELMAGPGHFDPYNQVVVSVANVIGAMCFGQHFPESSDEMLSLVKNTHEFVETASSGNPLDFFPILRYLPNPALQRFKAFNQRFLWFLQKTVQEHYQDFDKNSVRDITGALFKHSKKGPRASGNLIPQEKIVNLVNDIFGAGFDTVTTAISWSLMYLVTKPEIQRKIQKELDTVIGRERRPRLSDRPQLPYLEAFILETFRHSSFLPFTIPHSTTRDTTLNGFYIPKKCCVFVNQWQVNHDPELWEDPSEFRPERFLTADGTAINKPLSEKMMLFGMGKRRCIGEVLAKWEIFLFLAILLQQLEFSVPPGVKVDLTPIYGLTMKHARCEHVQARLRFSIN

Structure (SMILES): Cn1cc(Cl)c(C(=O)NNC(=S)NC2CCCCC2)n1
- EC50 [1]: 41 µM (active)

Structure (SMILES): Cc1nc(/N=N\c2ccc(C(=O)O)cc2)c(COP(=O)(O)O)c(C=O)c1O
- AC50 [2]: 39.8 µM (inconclusive)
- AC50 [3]: 10 µM (inconclusive)

Structure (SMILES): COc1ccc(/C=N/NC(=O)c2n[nH]c3c2CCC3)cc1O
- EC50 [4]: 4.21 µM (not active)
- EC50 [5]: > 8 µM (not active)
- EC50 [6]: > 8 µM (inactive)

Structure (SMILES): Cc1cc2c(nc3s/c(=C/c4ccccc4)c(=O)n32)c(Br)c1C
- Ki [7]: 28.5 µM (inactive)

Structure (SMILES): COc1ccc(Cl)cc1NC(=O)Nn1cnnc1
- IC50 [8]: 0.832 µM (active)
- IC50 [9]: > 59.6 µM (not active)

Structure (SMILES): Cc1ccc2cccc(S(=O)(=O)Nc3ccc4c(c3)OCO4)c2n1
- IC50 [10]: > 100 µM (inactive)

Structure (SMILES): Cc1ccc(C)c(-n2nnnc2Sc2nnnn2-c2ccccc2)c1
- EC50 [11]: > 350 µM (not active)
- EC50 [12]: 8.15 µM (active)
- EC50 [13]: 9.95 µM (active)
- EC50 [14]: > 350 µM (not active)
- IC50 [15]: 22.6 µM (inactive)
- IC50 [16]: > 80 µM (inactive)

Structure (SMILES): Cc1ccccc1NC(=NCCCN1CC1)Nc1ccccc1C
- CC50 [17]: 7.68 µM (active)
- IC50 [18]: 20.3 µM (active)
- IC50 [19]: 12.5 µM (active)
- IC50 [20]: > 100 µM (inactive)
- IC50 [21]: 30 µM (active)
- IC50 [22]: > 66.6 µM (inactive)
- IC50 [23]: 2.8 µM (active)

Structure (SMILES): COc1ccc(NC(=O)CCCOc2cc(=O)n(C)c3ccccc23)cc1Cl
- EC50 [24]: > 49.7 µM (inactive)
- EC50 [25]: > 49.7 µM (inactive)

Structure (SMILES): O=C1NC(=O)C(c2ccccc2[N+](=O)[O-])=C1Nc1ccc(O)c(Cl)c1
- IC50 [26]: 55.4 µM (active)
- AC50 [27]: 5.56 µM (active)
- AC50 [28]: 3.11 µM (active)
- AC50 [29]: 89.1 µM (active)
- AC50 [3]: 12.6 µM (inconclusive)
- AC50 [30]: 31.6 µM (inconclusive)
